Test results taken from ChEMBL document CHEMBL1201862, “PubChem BioAssay data set” (2004).
Activity calls are given as the source filed them.

Experiments:
[1] = molecular target: Lytic switch protein BZLF1 (Epstein-Barr virus (strain B95-8) (HHV-4) (Human herpesvirus 4), UniProt P03206); test: EBV ZTA inhibitors, dose response, counter-screen for EBNA-1 inhibitor project, biochemical, fluorescence polarization, Epstein-Barr virus, 1536-well (AID 2377); design: species or system human gammaherpesvirus 4;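 further: fluorescence polarization of Cy5-labelled ZRE DNA probe bound by purified Zta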
[2] = molecular target: Epstein-Barr nuclear antigen 1 (Epstein-Barr virus (strain B95-8) (HHV-4) (Human herpesvirus 4), UniProt P03211); test: EBNA-1 inhibitors, dose response, biochemical, fluorescence polarization, 1536-well (AID 2381); design: species or system human gammaherpesvirus 4;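 further: fluorescence polarization of a Cy5 DNA probe bound by EBNA-1 protein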
[3] = molecular target: Voltage-gated inwardly rectifying potassium channel KCNH2 (Homo sapiens, UniProt Q12809); test: hERG protection from proarrhythmic block, potency, dose response, cell-based, thallium flux (AID 2121); format: ADME
[4] = A Cell Based Secondary Assay To Explore Cytotoxicity of Compounds that Sensitize Mycobacterium Tuberculosis to Beta-Lactam Antibiotics.; format: functional
[5] = cytotoxicity in KRAS-transformed pancreatic duct cells, primary screen, cell-based, fluorescence, HTS (AID 431); format: functional; settings: Homo sapiens;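 further: cell line used: HPDE-C7K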
[6] = cytotoxicity in HPDE-C7 cells, cell-based, fluorescence, HTS (AID 430); format: functional; settings: Homo sapiens
[7] = molecular target: NAD-dependent protein deacylase sirtuin-5, mitochondrial (Homo sapiens, UniProt Q9NXA8); test: SIRT5 desuccinylase inhibitors, dose response, biochemical, fluorescence imaging, cherry-pick, set 5 (AID 720591);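 further: desuccinylation of succinyl peptide AMC substrate read as fluorescence after trypsin release; potency of inhibitors that lower fluorescence and may act on trypsin instead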
[8] = cytotoxicity dependent on PAX8, dose response, cell-based, plate reader, dry powder (AID 743049); format: functional
[9] = cytotoxicity in COV434 cells, dose response, cytotoxicity control for PAX8 inhibitor project, cell-based, plate reader, dry powder, SA7 (AID 743145); format: functional
[10] = PAX5 activity inhibitors, dose response, selectivity assay for PAX8 inhibitor project, cell-based, plate reader, dry powder samples (AID 743047); format: functional;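 further: HEK293 cells carrying a Pax5 driven CD19 promoter luciferase reporter; potency of inhibitors that lower reporter luminescence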
[11] = A2780 ovarian cancer cell cytotoxicity, dose response, cytotoxicity control, plate reader, dry powder samples (AID 743046); format: functional, cell-based
[12] = molecular target: Paired box protein Pax-8 (Homo sapiens, UniProt Q06710); test: inhibitors of PAX8-driven TPO luciferase reporter, dose response, RMG-I cells, cherry-pick (AID 687027); format: functional, cell-based;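 further: luciferase reporter driven by Pax8 target thyroperoxidase promoter measured by SteadyGlo luminescence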
[13] = cytotoxicity in OVCAR4 cells, dose response, cytotoxicity control for PAX8 inhibitor project, cell-based, plate reader, dry powder, SA11 (AID 743150); format: functional; settings: OVCAR-4
[14] = cytotoxicity in COV362 ovarian cancer cells, dose response, cytotoxicity control for PAX8 inhibitor project, cell-based, plate reader, dry powder, SA12 (AID 743144); format: functional
[15] = PAX2 cell-based inhibition, dose response, selectivity assay for PAX8 inhibitor project, plate reader, dry powder samples (AID 743048); format: functional;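 further: HEK293 cells carrying a WT1 promoter luciferase reporter driven by expressed Pax2; potency is for inhibition of Pax2 driven reporter signal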
[16] = cytotoxicity in OVCAR8 ovarian cancer cells, dose response, PAX8 project, cell-based, plate reader, dry powder samples (AID 743197); format: functional; settings: OVCAR-8
[17] = non-specific cell cytotoxicity, dose response, cytotoxicity control for PAX8 inhibitor project, plate reader, dry powder samples (AID 743021); format: functional, cell-based
[18] = NIH:OVCAR-3 ovarian cancer cell cytotoxicity, dose response, PAX8 inhibitor project, plate reader, dry powder samples (AID 743044); format: functional, cell-based
[19] = ZM109 Env clade C HIV-1 fusion inhibitors, dose response, HeLa effector, CEM target cells, luciferase, cherry-pick (AID 652058); format: functional, cell-based
[20] = inhibitors of HIV Env-driven cell fusion, dose response, cherry-pick (AID 652057); format: functional, cell-based
[21] = CEM21 lymphoblast cell cytotoxicity, dose response, cytotoxicity control for viral fusion inhibitor project, CellTiter-Glo luminescence, cherry-picked (AID 652042); format: functional, cell-based;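 further: potency for signal decrease meaning cytotoxicity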
[22] = IGROV1 ovarian cancer cell cytotoxicity, dose response, PAX8 inhibitor project, plate reader, dry powder samples (AID 743043); format: functional, cell-based; settings: IGROV-1
[23] = IOSE-T80 ovarian epithelial cell cytotoxicity, dose response, cytotoxicity control for PAX8 inhibitor project, plate reader, dry powder samples (AID 743045); format: functional, cell-based
[24] = inhibitors of clade B AD8 Env fusion, dose response, cell-based, cherry-pick (AID 652062); format: functional;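 further: luciferase signal from cell-cell fusion driven by HIV-1 clade B AD8 Env; potency is for inhibitors of fusion seen as a drop in luminescence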
[25] = HepG2 cell cytotoxicity, dose response, cytotoxicity control, plate reader, dry powder samples (AID 1159569); format: functional, cell-based;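 further: inhibitor potency with signal falling toward the positive control level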
[26] = P. falciparum 3D7-ScDHODH growth inhibitors, dose response, SYBR Green, dry powder samples (AID 1159570); format: functional, cell-based;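 further: parasite growth measured after 72 hours of compound exposure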
[27] = P. falciparum Dd2 growth inhibitors, dose response, SYBR Green, dry powder samples (AID 1159566); format: functional, cell-based;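 further: potency for growth inhibition with lower SYBR green DNA signal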
[28] = inhibitors of PGC1a acetylation in cells, dose response, cell-based, cherry-picked samples (AID 720514); format: functional;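 further: potency may reflect raised or lowered acetylation signal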
[29] = P. falciparum Dd2 growth inhibitors, dose response, SYBR Green, cherry-picked samples (AID 1159567); format: functional, cell-based
[30] = P. falciparum ATP4 D1247Y mutant growth inhibitors, dose response, NITD609-resistant line, SYBR Green, dry powder (AID 1159571); format: functional, cell-based;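 further: parasites synchronized at ring stage by sorbitol before testing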
[31] = Glucagon-like peptide 1 release potency, NCI-H716 cell line, dose-response, half-maximal inhibitory concentration (AID 1117344); format: functional, cell-based
[32] = half-maximal inhibitory concentration for glucagon-like peptide-1 release, STC-1 cell line, dose-response (AID 1117345); format: functional, cell-based
[33] = Dose-response inhibition of insulin secretion in a rat insulinoma line at 5 mM glucose (AID 1117331); format: functional, cell-based; settings: INS-1E

Chain of Paired box protein Pax-8 (Q06710 whole entry): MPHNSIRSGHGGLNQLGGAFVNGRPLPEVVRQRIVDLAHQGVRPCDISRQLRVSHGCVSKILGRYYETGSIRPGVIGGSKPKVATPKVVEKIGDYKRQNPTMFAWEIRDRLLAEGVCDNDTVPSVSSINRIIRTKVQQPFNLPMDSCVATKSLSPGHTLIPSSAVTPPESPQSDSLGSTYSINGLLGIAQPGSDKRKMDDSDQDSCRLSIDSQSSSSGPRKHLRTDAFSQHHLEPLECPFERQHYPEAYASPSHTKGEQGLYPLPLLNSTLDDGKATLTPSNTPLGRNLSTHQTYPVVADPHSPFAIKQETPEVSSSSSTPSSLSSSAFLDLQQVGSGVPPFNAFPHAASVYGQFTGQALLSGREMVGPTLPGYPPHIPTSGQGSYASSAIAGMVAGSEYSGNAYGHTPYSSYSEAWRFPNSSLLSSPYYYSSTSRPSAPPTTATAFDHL
Chain of Epstein-Barr nuclear antigen 1 (P03211 whole entry): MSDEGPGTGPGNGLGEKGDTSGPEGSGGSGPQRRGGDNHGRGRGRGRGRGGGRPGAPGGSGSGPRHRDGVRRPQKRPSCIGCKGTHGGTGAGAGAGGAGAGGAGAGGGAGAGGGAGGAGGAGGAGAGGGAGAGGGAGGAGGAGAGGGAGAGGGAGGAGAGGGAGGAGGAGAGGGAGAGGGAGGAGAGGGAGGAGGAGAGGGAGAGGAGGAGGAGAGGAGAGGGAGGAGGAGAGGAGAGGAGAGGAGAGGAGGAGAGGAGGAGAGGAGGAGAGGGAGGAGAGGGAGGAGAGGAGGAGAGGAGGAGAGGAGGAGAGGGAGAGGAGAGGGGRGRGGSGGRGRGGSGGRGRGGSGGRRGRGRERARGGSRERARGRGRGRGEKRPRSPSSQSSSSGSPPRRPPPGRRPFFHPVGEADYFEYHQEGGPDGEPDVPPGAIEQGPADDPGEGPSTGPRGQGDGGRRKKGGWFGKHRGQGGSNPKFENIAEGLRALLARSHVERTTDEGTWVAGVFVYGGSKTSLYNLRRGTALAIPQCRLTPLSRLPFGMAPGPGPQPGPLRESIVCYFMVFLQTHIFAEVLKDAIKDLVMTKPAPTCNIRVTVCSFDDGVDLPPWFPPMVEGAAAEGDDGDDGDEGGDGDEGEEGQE
Chain of Lytic switch protein BZLF1 (P03206 whole entry): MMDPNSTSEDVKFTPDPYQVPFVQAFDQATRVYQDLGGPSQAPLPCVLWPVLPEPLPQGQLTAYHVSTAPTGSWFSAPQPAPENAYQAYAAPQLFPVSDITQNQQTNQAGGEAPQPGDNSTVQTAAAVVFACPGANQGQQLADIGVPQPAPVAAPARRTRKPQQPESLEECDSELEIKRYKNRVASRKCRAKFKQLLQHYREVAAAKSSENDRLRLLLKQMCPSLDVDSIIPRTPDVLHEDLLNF
Chain of NAD-dependent protein deacylase sirtuin-5, mitochondrial (Q9NXA8 whole entry): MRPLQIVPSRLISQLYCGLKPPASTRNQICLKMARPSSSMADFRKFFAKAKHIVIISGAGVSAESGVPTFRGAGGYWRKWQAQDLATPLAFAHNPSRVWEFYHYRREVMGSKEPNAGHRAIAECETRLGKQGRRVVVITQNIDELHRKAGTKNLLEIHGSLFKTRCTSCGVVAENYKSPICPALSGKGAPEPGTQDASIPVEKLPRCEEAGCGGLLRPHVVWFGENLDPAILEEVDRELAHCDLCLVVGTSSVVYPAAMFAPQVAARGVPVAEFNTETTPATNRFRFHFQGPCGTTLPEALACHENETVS
Chain of Voltage-gated inwardly rectifying potassium channel KCNH2 (Q12809 whole entry): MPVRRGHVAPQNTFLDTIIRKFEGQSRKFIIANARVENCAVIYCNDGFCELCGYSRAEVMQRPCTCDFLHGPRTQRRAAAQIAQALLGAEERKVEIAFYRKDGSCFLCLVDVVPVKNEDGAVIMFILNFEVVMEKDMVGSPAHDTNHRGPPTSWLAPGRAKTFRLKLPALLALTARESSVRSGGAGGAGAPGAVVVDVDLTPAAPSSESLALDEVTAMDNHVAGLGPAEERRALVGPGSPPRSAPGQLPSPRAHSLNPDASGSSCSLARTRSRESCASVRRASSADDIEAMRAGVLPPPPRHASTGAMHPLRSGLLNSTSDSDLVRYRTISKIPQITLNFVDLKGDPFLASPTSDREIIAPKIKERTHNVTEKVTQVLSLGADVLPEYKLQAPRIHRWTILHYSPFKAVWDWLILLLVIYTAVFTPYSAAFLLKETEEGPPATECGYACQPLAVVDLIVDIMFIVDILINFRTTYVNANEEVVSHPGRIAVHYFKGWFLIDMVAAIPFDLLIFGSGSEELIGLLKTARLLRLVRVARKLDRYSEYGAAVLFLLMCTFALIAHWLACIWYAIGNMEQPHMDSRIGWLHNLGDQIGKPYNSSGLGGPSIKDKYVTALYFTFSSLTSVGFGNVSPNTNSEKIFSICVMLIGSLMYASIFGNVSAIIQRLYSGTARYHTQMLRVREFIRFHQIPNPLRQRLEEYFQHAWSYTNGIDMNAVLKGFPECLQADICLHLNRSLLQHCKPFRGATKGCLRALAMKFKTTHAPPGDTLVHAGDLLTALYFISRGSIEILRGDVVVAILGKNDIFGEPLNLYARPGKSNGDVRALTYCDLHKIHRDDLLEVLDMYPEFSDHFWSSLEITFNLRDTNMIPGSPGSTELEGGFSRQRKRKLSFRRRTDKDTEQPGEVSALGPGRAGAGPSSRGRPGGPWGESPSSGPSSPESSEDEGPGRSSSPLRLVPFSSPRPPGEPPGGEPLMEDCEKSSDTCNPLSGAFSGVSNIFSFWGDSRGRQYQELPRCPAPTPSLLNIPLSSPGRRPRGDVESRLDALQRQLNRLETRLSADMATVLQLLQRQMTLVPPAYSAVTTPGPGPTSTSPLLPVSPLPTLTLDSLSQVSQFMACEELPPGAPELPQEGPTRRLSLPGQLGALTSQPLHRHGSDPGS

CCN(CC)S(=O)(=O)c1ccc(C(=O)Nc2nnc(N=C(S)Nc3ccccc3)s2)cc1
IC50 [1]: > 111 µM (not active) | IC50 [2]: 6.46 µM (active)

O=C(NCc1ccc2c(c1)OCO2)C1CCC(CNS(=O)(=O)c2ccc(Cl)cc2)CC1 (stereo not drawn)
IC50 [1]: > 111 µM (not active) | IC50 [2]: > 148 µM (not active)

Cc1ccc(C(=O)CC(=O)c2cccc(F)c2)c(O)c1
EC50 [3]: 3.76 µM (active)

CC(O)/C=C/c1ccc2ccccc2n1 (stereo not drawn)
CC50 [4]: 35.2 µM (active) | EC50 [5]: > 20 µM (not active) | EC50 [6]: 17.8 µM (active)

CCN(Cc1nc(-c2ccccc2)no1)C(=O)c1ccco1
AC50 [7]: > 30 µM (inactive)

N#C[C@@H]1[C@H](c2ccc(C#CC3CCCC3)cc2)[C@H](CO)N1C(=O)Nc1ccc(F)cc1
AC50 [8]: 19.8 µM (active) | AC50 [9]: 46.9 µM (active) | AC50 [10]: 9.89 µM (active) | AC50 [11]: 19.4 µM (active) | AC50 [12]: 10.5 µM (active) | AC50 [13]: 18.8 µM (active) | AC50 [14]: 62.6 µM (active) | AC50 [15]: 9.84 µM (active) | AC50 [16]: > 70 µM (inactive)

C[C@@H]1CN([C@@H](C)CO)C(=O)Cc2cc(NS(=O)(=O)c3ccccc3)ccc2O[C@H]1CN(C)Cc1ccc(Cl)c(Cl)c1
AC50 [17]: 3.32 µM (active) | AC50 [18]: 11 µM (active) | AC50 [19]: 0.289 µM (active) | AC50 [20]: 8.55 µM (active) | AC50 [11]: 24.9 µM (active) | AC50 [12]: 2.42 µM (active) | AC50 [21]: 20.3 µM (active) | AC50 [22]: 5.66 µM (active) | AC50 [23]: 10.8 µM (active) | AC50 [24]: 1.19 µM (active) | AC50 [16]: 11.5 µM (active)

COc1cccc(-c2ccc([C@@H]3[C@@H]4CN(C(=O)C5CC5)C[C@H]3N4)cc2)c1
AC50 [25]: 34.3 µM (active) | AC50 [26]: 0.85 µM (active) | AC50 [18]: 43.6 µM (active) | AC50 [12]: 3.06 µM (active) | AC50 [27]: 0.634 µM (active) | AC50 [28]: 24.1 µM (active) | AC50 [29]: 0.949 µM (active) | AC50 [30]: 1.03 µM (active) | AC50 [16]: 39 µM (active)

C[C@H](CO)N1C[C@H](C)[C@@H](CN(C)Cc2ccc(-c3ccccc3)cc2)OCc2ccccc2-c2c(n(C)c3ccccc23)C1=O
AC50 [25]: 19.1 µM (active) | AC50 [26]: 2.06 µM (active) | AC50 [27]: 0.865 µM (active) | AC50 [29]: 2.35 µM (active) | AC50 [30]: 1.46 µM (active)

CC1=C(C(=O)O)N2C(=O)[C@@H](NC(=O)[C@H](N)c3ccccc3)[C@H]2SC1 [CEPHALEXIN ANHYDROUS]
IC50 [31]: > 40 µM (inactive) | IC50 [32]: > 40 µM (inactive)

CCCCCNC(=N)N/N=C/c1c[nH]c2ccc(OC)cc12 [TEGASEROD]
IC50 [31]: 10.9 µM (inactive) | IC50 [33]: 16.8 µM (inactive) | IC50 [32]: > 40 µM (inactive)
